Laboratory results taken from patent US10463688B2, “Nylon-3 polymers active against Clostridium difficile” (priority 2015, dated 2019).
In brackets after ≈: the same amount, converted by molar mass.

Tests used:
[1] = tested on: C. difficile spores (630Δerm strain); assay: Viability of spores recovered from OIC assays (spore outplating), strain 630Δerm; assay type: cell-based, Clostridium difficile; conditions: CFU post-assay/initial CFU
Protocol: Experiments were conducted to determine whether any spores fail to germinate under the conditions of the OIC measurement but remain viable for subsequent germination and outgrowth. Spores were incubated for 24 h in the presence of germinant (taurocholate) and one of the polymers or other agents at multiple concentrations above the OIC. These solutions were then diluted 10 to 100-fold into sterile PBS, and further diluted upon plating onto BHIS agar medium containing germinant to achieve concentrations below the OIC of the relevant antimicrobial agent. Spore survival was calculated as the percentage of colony-forming units retrieved on outgrowth plates relative to the initial spore inoculum (100%).
Samples were diluted and plated onto BHIS medium containing 0.1% taurocholate and enumerated following incubation for at least 24 h at 37° C. Spore survival was calculated as the percentage of CFU post-assay/initial CFU.

[2] = tested on: C. difficile spores (R20291 strain); conditions: MH broth with taurocholate, 24 h at 37° C.
[3] = tested on: C. difficile spores (630Δerm strain); conditions: 630Δerm spores; MH broth with taurocholate, 24 h at 37° C.
[4] = tested on: human red blood cells (hRBCs)
[5] = tested on: C. difficile spores (R20291 strain); assay: Viability of spores recovered from OIC assays (spore outplating), strain R20291; conditions: for R20291 Mean Spore Viability: CFU post-assay/initial CFU
[6] = tested on: C. difficile spores (R20291 strain); assay: microbe, parasite or virus in culture; conditions: Clostridioides difficile, 24 h, read-out: OIC, minimum inhibition concentration for spore outgrowth
[7] = tested on: C. difficile spores (630Δerm strain); assay: microbe, parasite or virus in culture; conditions: Clostridioides difficile, 24 h, read-out: OIC, minimum inhibition concentration for spore outgrowth
[8] = Clostridioides difficile, read-out: R20291 Mean Spore Viability

Structure (SMILES)	630ΔErm Mean Spore Viability ([1]; concentration 20 μg/ml)	630ΔErm Mean Spore Viability ([1]; concentration 40 μg/ml)	630ΔErm Mean Spore Viability ([1]; concentration 80 μg/ml)	OIC, minimum inhibition concentration for spore outgrowth [2]	OIC, minimum inhibition concentration for spore outgrowth [3]	hemolytic activity (in words) [4]	R20291 Mean Spore Viability ([5]; concentration 10 μg/ml)	R20291 Mean Spore Viability ([5]; concentration 20 μg/ml)	R20291 Mean Spore Viability ([5]; concentration 40 μg/ml)	R20291 Mean Spore Viability ([5]; concentration 80 μg/ml)	MIC [6]	MIC [7]	viability at 0.5 µg/mL [5, 8]	viability at 1 µg/mL [5, 8]	viability at 2 µg/mL [5, 8]	viability at 4 µg/mL [5, 8]	viability at 8 µg/mL [5, 8]
CC[C@H](C)[C@H](NC(=O)[C@H](CCCCN)NC(=O)[C@H](CCC(=O)O)NC(=O)[C@H](CCCCN)NC(=O)[C@H](CO)NC(=O)[C@H](CCCCN)NC(=O)[C@H](CCCNC(=N)N)NC(=O)[C@H](Cc1ccccc1)NC(=O)[C@H](Cc1ccccc1)NC(=O)[C@H](CC(=O)O)NC(=O)CNC(=O)[C@H](CC(C)C)NC(=O)[C@@H](N)CC(C)C)C(=O)NCC(=O)N[C@@H](CCCCN)C(=O)N[C@@H](CCC(=O)O)C(=O)N[C@@H](Cc1ccccc1)C(=O)N[C@@H](CCCCN)C(=O)N[C@@H](CCCNC(=N)N)C(=O)N[C@H](C(=O)N[C@H](C(=O)N[C@@H](CCC(N)=O)C(=O)N[C@@H](CCCNC(=N)N)C(=O)N[C@H](C(=O)N[C@@H](CCCCN)C(=O)N[C@@H](CC(=O)O)C(=O)N[C@@H](Cc1ccccc1)C(=O)N[C@@H](CC(C)C)C(=O)N[C@@H](CCCNC(=N)N)C(=O)N[C@@H](CC(N)=O)C(=O)N[C@@H](CC(C)C)C(=O)N[C@H](C(=O)N1CCC[C@H]1C(=O)N[C@@H](CCCNC(=N)N)C(=O)N[C@H](C(=O)N[C@@H](CCC(=O)O)C(=O)N[C@@H](CO)C(=O)O)[C@@H](C)O)C(C)C)[C@@H](C)CC)C(C)C)[C@@H](C)CC [LL-37]	5.5% (±7.4%)	4.0% (±4.0%)	7.8% (±3.9%)	5 µg/mL	10 µg/mL	significant hemolytic activity	0.4% (±0.7%)	1.2% (±0.7%)	3.6% (±1.8%)	5.8% (±2.9%)	–	–	–	–	–	–	–
CN[C@H](CC(C)C)C(=O)N[C@H]1C(=O)N[C@@H](CC(N)=O)C(=O)N[C@H]2C(=O)N[C@H]3C(=O)N[C@H](C(=O)N[C@H](C(=O)O)c4cc(O)cc(O)c4-c4cc3ccc4O)[C@H](O)c3ccc(c(Cl)c3)Oc3cc2cc(c3O[C@@H]2O[C@H](CO)[C@@H](O)[C@H](O)[C@H]2O[C@H]2C[C@](C)(N)[C@H](O)[C@H](C)O2)Oc2ccc(cc2Cl)[C@H]1O [vancomycin]	–	–	–	–	–	–	–	–	–	–	0.25 µg/mL (≈ 0.173 µM)	> 32 µg/mL	21.1%	7.7%	3.4%	1.3%	0.9%
